{"source": "paper PMC11237035", "about": "“Glutathione determines chronic myeloid leukemia vulnerability to an inhibitor of CMPK and TMPK” (Communications Biology, 2024)", "key": {"WT-Bcr-Abl-32D cells": {"system": "WT-Bcr-Abl-32D cells", "assay": "CCK-8 cell viability assay, WT-Bcr-Abl-32D cells", "assay_type": "cell-based, mouse", "settings": "for viability (0 = 100): single replicates"}, "K562 cells": {"system": "K562 cells", "assay": "CCK-8 cell viability assay, K562 cells", "assay_type": "cell-based, human", "settings": "for cell viability (Figure 7d): K562, relative to 0 = 100, per replicate", "experimental": "After 3 days, cells were analyzed by viability assays."}, "hTMPK": {"molecular_target": "T1, hTMPK (Homo sapiens, UniProt P23919)", "T1 sequence (P23919 1-212)": "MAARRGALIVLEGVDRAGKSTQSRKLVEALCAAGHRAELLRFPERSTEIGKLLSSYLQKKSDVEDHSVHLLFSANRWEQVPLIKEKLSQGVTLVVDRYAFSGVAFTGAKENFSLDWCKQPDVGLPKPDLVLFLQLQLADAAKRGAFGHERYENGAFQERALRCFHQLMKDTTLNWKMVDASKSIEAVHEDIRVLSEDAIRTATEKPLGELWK", "assay": "biochemical", "quoted_text": "Activity assay was measured using the spectrophotometric method by coupling ADP formation to NADH oxidation catalyzed by pyruvate kinase and lactate dehydrogenase as described previously[20]. Each reaction contained 0.4 μg TMPK or 0.3 μg CMPK was incubated at 25 °C followed by using Tecan Spark 10 microplate reader to detect the change in NADH measurement at 340 nm absorption according to the manufacturer’s instructions."}, "[1]": {"system": "T315I-Bcr-Abl-32D cells in C3H/HeNCrNarl mice", "settings": "for survival of leukemia mice: T315I-Bcr-Abl-32D mice, vs vehicle", "quoted_text": "Asterisks denote *p < 0.05, **p < 0.01, ***p < 0.001, or ****p < 0.0001 from unpaired two-tailed Student’s t-test or Log-rank (Mantel–Cox) test.\nT315I-Bcr-Abl-transformed and untransformed 32D cells were treated with UK-5099 (25 μM) for 16 h. […] Data are represented as means ± S.D., n > 3 biological replicates.\nThe animal studies were approved by the biosafety committee at National Taiwan University and conformed to the national guidelines and regulations (IACUC # 20201063). Female C3H/HeNCrNarl mice were used at 6–8 weeks of age (National Laboratory Animal Center, Taiwan).\nMouse CML induction and in vivo therapy\nThe animal studies were approved by the biosafety committee at National Taiwan\nUniversity and conformed to the national guidelines and regulations (IACUC #\n20201063). Female C3H/HeNCrNarl mice were used at 6-8 weeks of age (National\nLaboratory Animal Center, Taiwan).\nsuspended in 200 μL of HBSS were injected into each mouse through the tail vein.\nsuspended in 200 μL of HBSS were tail-vein-injected.\n(§1) For monitoring CML progress, mice blood was\n(§2) collected in anticoagulation tubes by submandibular blood collection, followed by\n(§3) lysing red blood cells with RBC lysis buffer (Invitrogen). After washing, the remaining\n(§4) cells were suspended in 500 μL of HBSS and subjected to flow cytometry analysis\n(FACScalibur, BD Bioscience) with CellQuest software."}, "T315I-Bcr-Abl-32D cells": {"system": "T315I-Bcr-Abl-32D cells", "assay": "dTTP/dCTP pools by RCA-qPCR in T315I-Bcr-Abl-32D cells", "assay_type": "cell-based, mouse", "settings": "T315I-Bcr-Abl-32D cells, combinatory treatment of UK-5099 with JMF4073", "experimental": "The methanol extracts were centrifuged\nFor chloroform extraction, same volume of\nattomol of the annealed template-primer.\nThe RCA products were determined by\nThe thiophenol compound 3 was\n(98.5%) after silica gel chromatography."}, "[2]": {"system": "WT-Bcr-Abl-32D cells in C3H/HeNCrNarl mice", "assay": "In vivo therapy of WT-Bcr-Abl-32D CML mice", "settings": "WT-Bcr-Abl-32D mice", "text": "Data are represented as means ± S.D., n = 3 biological replicates. e C3H/HeNCrNarl mice were intravenously injected with 5 × 10^5 cells of WT-Bcr-Abl-32D cell. […] Asterisks denote *p < 0.05, **p < 0.01, ***p < 0.001, or ****p < 0.0001 from unpaired two-tailed Student’s t-test or Log-rank (Mantel–Cox) test.\nFemale C3H/HeNCrNarl mice were used at 6–8 weeks of age (National Laboratory Animal Center, Taiwan).\nMouse CML induction and in vivo therapy\nFemale C3H/HeNCrNarl mice were used at 6-8 weeks of age (National\nLaboratory Animal Center, Taiwan). WT-Bcr-Abl-32D-EGFP+ cells (5 × 105)\nsuspended in 200 μL of HBSS were injected into each mouse through the tail vein. After\nwere monitored for peripheral blood (PB) and counted by Taiwan Mouse Clinic-\nNational Phenotyping Center, National Research Program for Genomic Medicine\n(NSC). For T315I-Bcr-Abl CML mice, T315I-Bcr-Abl-32D-EGFP+ cells (1×106)\nsuspended in 200 μL of HBSS were tail-vein-injected. After 7 days of transplantation,\nas §1, §2, §3, §4\n(FACScalibur, BD Bioscience) with CellQuest software. The number of EGFP+ cells"}, "untransformed 32D cells [3]": {"system": "untransformed 32D cells", "assay": "Western blot of tyrosine phosphorylation, untransformed 32D cells", "assay_type": "cell-based, mouse", "settings": "untransformed 32D cells, JMF4073 at indicated concentrations, Western blot"}, "untransformed 32D cells [4]": {"system": "untransformed 32D cells", "assay": "CCK-8 cell viability assay, untransformed 32D cells", "assay_type": "cell-based, mouse", "settings": "for viability (vehicle, 0 = 100): 32D cells, 72 h, no BSO; for viability (vehicle, 0 = 100) / viability (0 = 100): single replicates; for viability (0 = 100): Untransformed", "experimental": "After 72 h, viability assays were performed.\n3 independent experiments. Asterisks denote ***p<0.001 from non-paired two-tailed"}, "KOPM28 cells": {"system": "KOPM28 cells", "assay": "CCK-8 cell viability assay, KOPM28 cells", "settings": "for cell viability (Figure 7g): NT, NT 0 μM = 100, per replicate", "quoted_text": "Cells were seeded at the density of 1 × 10^3 cells/well in 96-well microplate. After 3 days, cell viability was determined using the CCK-8 cell viability. The viability was measured by using Tecan Spark 10 microplate reader at 450 nm according to the manufacturer’s instructions."}}, "note": "Where “and” joins values, the source holds several entries; their conditions need not be identical. Equal entries are not always repeated. Where two headings read alike, the source gives them in different places."}
{"smiles": "CC(C)(C)OC(=O)N1CCN(C(=O)Cn2sc3ccc(F)cc3c2=O)CC1", "note": "[JMF4073, Tert-butyl 4-(2-(5-fluoro-3-oxobenzo[d]isothiazol-2(3H)-yl)acetyl) piperazine-1-carboxylate]", "values": [{"measurement": "GI50", "setting": "WT-Bcr-Abl-32D cells; Mus musculus, WT-Bcr-Abl-32D cells, viability", "value": 0.67, "unit": "µM"}, {"measurement": "viability (0 = 100)", "setting": "WT-Bcr-Abl-32D cells; WT-Bcr-Abl, JMF4073 1 mM (so in the source)", "value": "5 and 32.8138 and 24"}, {"measurement": "viability (0 = 100)", "setting": "WT-Bcr-Abl-32D cells; WT-Bcr-Abl, JMF4073 2 mM (so in the source)", "value": "1 and 9.014 and 19"}, {"measurement": "viability (0 = 100)", "setting": "WT-Bcr-Abl-32D cells; WT-Bcr-Abl, JMF4073 5 mM (so in the source)", "value": "-1.08 and 0.13 and 0"}, {"measurement": "cell viability (% of NT vehicle), Figure 5h", "setting": "WT-Bcr-Abl-32D cells; WT-Bcr-Abl, NT (no NAC), JMF4073, single replicates", "value": "28.4633 and 15.0339 and 2.584"}, {"measurement": "JMF4073 sensitivity after NAC treatment", "setting": "WT-Bcr-Abl-32D cells; WT-Bcr-Abl-32D cells, NAC 1 mM + JMF4073 0.5 μM, 72 h", "value": "insensitive to JMF4073"}, {"measurement": "cell viability (Figure 7d)", "setting": "K562 cells; JMF4073 0.625 (mM as printed)", "value": "114.189 and 84.0418 and 97.6144"}, {"measurement": "cell viability (Figure 7d)", "setting": "K562 cells; JMF4073 1.25 (mM as printed)", "value": "86.4343 and 75.2342 and 85.0231"}, {"measurement": "cell viability (Figure 7d)", "setting": "K562 cells; JMF4073 2.5 (mM as printed)", "value": "42.6408 and 39.7616 and 38.8404"}, {"measurement": "cell viability (Figure 7d)", "setting": "K562 cells; JMF4073 5 (mM as printed)", "value": "4.788 and 0.7438 and 0.1275"}, {"measurement": "JMF4073 sensitivity", "setting": "K562 cells; K562 cells, 3 days, compared among K562, TCCS, KOPM28", "value": "higher"}, {"measurement": "IC50", "setting": "hTMPK", "value": "0.16 µM and ~0.17 µM"}, {"measurement": "Spleen weight", "setting": "[1]; Figure 6h, individual mice N1-N3", "value": "0.26 g and 0.29 g and 0.58 g"}, {"measurement": "spleen size", "setting": "[1]; JMF4073 5 mg/kg + UK-5099 10 mg/kg i.p.", "value": "marked decreases"}, {"measurement": "population of T315I-Bcr-Abl-32D/EGFP+ cells in blood", "setting": "[1]; JMF4073 5 mg/kg + UK-5099 10 mg/kg i.p., flow cytometry, day 30 after transplantation", "value": "marked decreases"}, {"measurement": "survival of leukemia mice", "setting": "[1]; JMF4073 5 mg/kg + UK-5099 10 mg/kg i.p. daily for 14 days", "value": "prolonged the survival"}, {"measurement": "survival of leukemia mice", "setting": "[1]; JMF4073 5 mg/kg i.p. daily for 14 days", "value": "not significantly prolonged"}, {"measurement": "dCTP pool", "setting": "T315I-Bcr-Abl-32D cells", "value": "exhaustion"}, {"measurement": "dTTP pool", "setting": "T315I-Bcr-Abl-32D cells", "value": "exhaustion"}, {"measurement": "WBC (White blood cell/Leukocyte count)", "setting": "[2]; IP JMF4073, Day 26, submandibular blood, single mice", "value": "brought down"}, {"measurement": "survival of leukemia mice", "setting": "[2]; JMF4073 5 mg/kg i.p. daily for 14 days, vs vehicle", "value": "prolonged the survival"}, {"measurement": "levels of overall tyrosine phosphorylation", "setting": "untransformed 32D cells [3]", "value": "unaffected"}, {"measurement": "viability (vehicle, 0 = 100)", "setting": "untransformed 32D cells [4]; JMF4073 0.5 mM (so in the source)", "value": "108 and 88"}, {"measurement": "viability (vehicle, 0 = 100)", "setting": "untransformed 32D cells [4]; JMF4073 1.25 mM (so in the source)", "value": "86 and 80"}, {"measurement": "viability (vehicle, 0 = 100)", "setting": "untransformed 32D cells [4]; JMF4073 2.5 mM (so in the source)", "value": "70 and 71.46"}, {"measurement": "growth of cells, BSO in combination with JMF4073", "setting": "untransformed 32D cells [4]; 32D myeloid progenitor cells", "value": "severely suppressed the growth"}, {"measurement": "GI50", "setting": "untransformed 32D cells [4]; Mus musculus, untransformed 32D cells, viability", "value": 4.2, "unit": "µM"}, {"measurement": "viability (0 = 100)", "setting": "untransformed 32D cells [4]; JMF4073 1 mM (so in the source)", "value": "80.74 and 95.63 and 110"}, {"measurement": "viability (0 = 100)", "setting": "untransformed 32D cells [4]; JMF4073 2 mM (so in the source)", "value": "67.24 and 95.4 and 71"}, {"measurement": "viability (0 = 100)", "setting": "untransformed 32D cells [4]; JMF4073 5 mM (so in the source)", "value": "26.41 and 55.58 and 32"}, {"measurement": "cell viability (Figure 7g)", "setting": "KOPM28 cells; KOPM28, JMF 4073 1.25 μM", "value": "106.704 and 151.464"}, {"measurement": "cell viability (Figure 7g)", "setting": "KOPM28 cells; KOPM28, JMF 4073 2.5 μM", "value": "112.966 and 158.237"}, {"measurement": "cell viability (Figure 7g)", "setting": "KOPM28 cells; KOPM28, JMF 4073 5 μM", "value": "142.547 and 122.577 and 85.9406"}, {"measurement": "cell viability (Figure 7g)", "setting": "KOPM28 cells; KOPM28, JMF 4073 10 μM", "value": "0 and -1.445 and 2.083"}, {"measurement": "sensitivity to combinatory treatment of JMF4073 and UK-5099", "setting": "KOPM28 cells; KOPM28 cells", "value": "insensitive"}, {"measurement": "JMF4073 sensitivity", "setting": "KOPM28 cells; KOPM28 cells, 3 days, compared among K562, TCCS, KOPM28", "value": "insensitive"}, {"measurement": "JMF4073 sensitivity after erastin pretreatment", "setting": "KOPM28 cells; KOPM28 cells, erastin 0.5 μM, 16 h", "value": "markedly increased"}]}
